Experimental data published in ChEMBL document CHEMBL1145316, “Synthesis of novel tricyclic oxazolidinones by a tandem SN2 and SNAr reaction: SAR studies on conformationally constrained analogues of Linezolid” (2006).
In brackets after ≈: the same amount, converted by molar mass.

Key:
Type in all cases: functional
Enterococcus faecium = experiment: Antibacterial activity against vancomycin-resistant Enterococcus faecium ATCC 12202
Enterococcus faecalis [1] = experiment: Antibacterial activity against vancomycin-sensitive Enterococcus faecalis ATCC 29212
Staphylococcus aureus [2] = experiment: Antibacterial activity against Staphylococcus aureus ATCC 49951
Enterococcus faecalis [3] = experiment: Antibacterial activity against vancomycin-resistant Enterococcus faecalis NCTC 12201
Staphylococcus aureus [4] = experiment: Antibacterial activity against Staphylococcus aureus ATCC 29213
Staphylococcus aureus [5] = experiment: Antibacterial activity against methicillin-resistant Staphylococcus aureus ATCC 33591

SMILES | MIC (Enterococcus faecium) | MIC (Enterococcus faecalis [1]) | MIC (Staphylococcus aureus [2]) | MIC (Enterococcus faecalis [3]) | MIC (Staphylococcus aureus [4]) | MIC (Staphylococcus aureus [5])
CC(=O)NC[C@H]1CN(c2ccc3c(c2)OC[C@@H]2CCCN32)C(=O)O1 | 16 µg/mL (≈ 48.3 µM) | 16 µg/mL (≈ 48.3 µM) | 4 µg/mL (≈ 12.1 µM) | 16 µg/mL (≈ 48.3 µM) | 8 µg/mL (≈ 24.1 µM) | 4 µg/mL (≈ 12.1 µM)
COC(=S)NC[C@H]1CN(c2cc(F)c3c(c2)N(C)C[C@@H]2CCCN32)C(=O)O1 | 32 µg/mL (≈ 81.1 µM) | > 32 µg/mL | > 32 µg/mL | > 32 µg/mL | > 32 µg/mL | > 32 µg/mL
CC(=O)NC[C@H]1CN(c2ccc3c(c2)SC[C@@H]2CCCN32)C(=O)O1 | 8 µg/mL (≈ 23 µM) | 8 µg/mL (≈ 23 µM) | 8 µg/mL (≈ 23 µM) | 8 µg/mL (≈ 23 µM) | 8 µg/mL (≈ 23 µM) | 8 µg/mL (≈ 23 µM)
CC(=O)NC[C@H]1CN(c2ccc3c(c2)N(C=O)C[C@@H]2CCCN32)C(=O)O1 | > 256 µg/mL | > 256 µg/mL | > 256 µg/mL | > 256 µg/mL | > 256 µg/mL | > 256 µg/mL
CC(=O)NC[C@H]1CN(c2ccc3c(c2)S(=O)(=O)C[C@@H]2CCCN32)C(=O)O1 | > 32 µg/mL | > 32 µg/mL | > 32 µg/mL | > 32 µg/mL | > 32 µg/mL | > 32 µg/mL
CC(=O)NC[C@H]1CN(c2cc(F)c3c(c2)SC[C@@H]2CCCN32)C(=O)O1 | 2 µg/mL (≈ 5.47 µM) | 2 µg/mL (≈ 5.47 µM) | 1 µg/mL (≈ 2.74 µM) | 1 µg/mL (≈ 2.74 µM) | 2 µg/mL (≈ 5.47 µM) | 1 µg/mL (≈ 2.74 µM)
C/C(S)=N/C[C@H]1CN(c2cc(F)c3c(c2)SC[C@@H]2CCCN32)C(=O)O1 | 0.25 µg/mL (≈ 0.655 µM) | 0.5 µg/mL (≈ 1.31 µM) | 0.5 µg/mL (≈ 1.31 µM) | 0.25 µg/mL (≈ 0.655 µM) | 0.5 µg/mL (≈ 1.31 µM) | 0.25 µg/mL (≈ 0.655 µM)
CC(=O)NC[C@H]1CN(c2ccc3c(c2)N(C(=O)OCc2ccccc2)C[C@@H]2CCCN32)C(=O)O1 | > 32 µg/mL | > 32 µg/mL | > 32 µg/mL | > 32 µg/mL | > 32 µg/mL | > 32 µg/mL
CC(=O)NC[C@H]1CN(c2ccc3c(c2)N(C(=O)CCl)C[C@@H]2CCCN32)C(=O)O1 | > 256 µg/mL | > 256 µg/mL | > 256 µg/mL | > 256 µg/mL | > 256 µg/mL | > 256 µg/mL
COC(=S)NC[C@H]1CN(c2ccc3c(c2)SC[C@@H]2CCCN32)C(=O)O1 | 0.5 µg/mL (≈ 1.32 µM) | 0.25 µg/mL (≈ 0.659 µM) | 1 µg/mL (≈ 2.63 µM) | 0.25 µg/mL (≈ 0.659 µM) | 0.5 µg/mL (≈ 1.32 µM) | 0.25 µg/mL (≈ 0.659 µM)
CNC(=S)NC[C@H]1CN(c2cc(F)c3c(c2)SC[C@@H]2CCCN32)C(=O)O1 | 1 µg/mL (≈ 2.52 µM) | 1 µg/mL (≈ 2.52 µM) | 0.5 µg/mL (≈ 1.26 µM) | 0.5 µg/mL (≈ 1.26 µM) | 2 µg/mL (≈ 5.04 µM) | 0.5 µg/mL (≈ 1.26 µM)
CC(=O)NC[C@H]1CN(c2cc(F)c3c(c2)N(C)C[C@@H]2CCCN32)C(=O)O1 | 32 µg/mL (≈ 88.3 µM) | > 32 µg/mL | > 32 µg/mL | > 32 µg/mL | > 32 µg/mL | > 32 µg/mL
CC(=O)NC[C@H]1CN(c2ccc3c(c2)N(C(C)=O)C[C@@H]2CCCN32)C(=O)O1 | > 256 µg/mL | > 256 µg/mL | > 256 µg/mL | > 256 µg/mL | > 256 µg/mL | > 256 µg/mL
COC(=S)NC[C@H]1CN(c2cc(F)c3c(c2)SC[C@@H]2CCCN32)C(=O)O1 | 0.5 µg/mL (≈ 1.26 µM) | 1 µg/mL (≈ 2.52 µM) | 1 µg/mL (≈ 2.52 µM) | 0.5 µg/mL (≈ 1.26 µM) | 1 µg/mL (≈ 2.52 µM) | 0.5 µg/mL (≈ 1.26 µM)
CC(=O)NC[C@H]1CN(c2ccc(N3CCOCC3)c(F)c2)C(=O)O1 [LINEZOLID] | 2 µg/mL (≈ 5.93 µM) |  |  |  |  | 1 µg/mL (≈ 2.96 µM)
CN[C@H](CC(C)C)C(=O)N[C@H]1C(=O)N[C@@H](CC(N)=O)C(=O)N[C@H]2C(=O)N[C@H]3C(=O)N[C@H](C(=O)N[C@H](C(=O)O)c4cc(O)cc(O)c4-c4cc3ccc4O)[C@H](O)c3ccc(c(Cl)c3)Oc3cc2cc(c3O[C@@H]2O[C@H](CO)[C@@H](O)[C@H](O)[C@H]2O[C@H]2C[C@](C)(N)[C@H](O)[C@H](C)O2)Oc2ccc(cc2Cl)[C@H]1O [VANCOMYCIN] | > 32 µg/mL | 2 µg/mL (≈ 1.38 µM) |  | > 32 µg/mL |  | 
